Reference: ChEMBL document CHEMBL4043290, “Structure-based Design of Pyridone-Aminal eFT508 Targeting Dysregulated Translation by Selective Mitogen-activated Protein Kinase Interacting Kinases 1 and 2 (MNK1/2) Inhibition” (J Med Chem, 2018)

Legend:
[1] = biological target: MAP kinase-interacting serine/threonine-protein kinase 1/2 (Homo sapiens, UniProt Q9HBH9+Q9BUB5)
[2] = biological target: MAP kinase-interacting serine/threonine-protein kinase 2 (Homo sapiens, UniProt Q9HBH9)
[3] = biological target: Vascular endothelial growth factor receptor 2 (Homo sapiens) (UniProt P35968); assay: Inhibition of KDR (unknown origin) at 1 uM relative to control
[4] = biological target: Tyrosine-protein kinase Lck (Homo sapiens) (UniProt P06239); assay: Inhibition of LCK (unknown origin) at 1 uM relative to control
[5] = tested on: SW-620; assay: Antiproliferative activity against human SW620 cells after 72 hrs by CellTiter-Glo assay; format: functional, cell-based; conditions: SW-620, 72 h
[6] = biological target: Tyrosine-protein kinase Yes (Homo sapiens) (UniProt P07947); assay: Inhibition of YES1 (unknown origin) at 1 uM relative to control
[7] = biological target: Platelet-derived growth factor receptor beta (Homo sapiens) (UniProt P09619); assay: Inhibition of PDGFRB (unknown origin) at 1 uM relative to control
[8] = biological target: Receptor-type tyrosine-protein kinase FLT3 (Homo sapiens) (UniProt P36888); assay: Inhibition of FLT3 (unknown origin) at 1 uM relative to control
[9] = biological target: Aurora kinase A (Homo sapiens) (UniProt O14965); assay: Inhibition of aurora A (unknown origin) at 1 uM relative to control
[10] = biological target: Proto-oncogene tyrosine-protein kinase receptor Ret (Homo sapiens) (UniProt P07949); assay: Inhibition of RET (unknown origin) at 1 uM relative to control
[11] = biological target: Platelet-derived growth factor receptor alpha (Homo sapiens) (UniProt P16234); assay: Inhibition of PDGFRA (unknown origin) at 1 uM relative to control
[12] = biological target: Tyrosine-protein kinase ABL1 (Homo sapiens) (UniProt P00519); assay: Inhibition of Abl1 (unknown origin) at 1 uM relative to control
[13] = biological target: Dual specificity tyrosine-phosphorylation-regulated kinase 1A (Homo sapiens) (UniProt Q13627); assay: Inhibition of DYRK1A (unknown origin) at 1 uM relative to control
[14] = tested on: HCT-116; assay: Antiproliferative activity against human HCT116 cells after 72 hrs by CellTiter-Glo assay; format: functional, cell-based; conditions: HCT-116, 72 h
[15] = biological target: MAP kinase-interacting serine/threonine-protein kinase 1 (Homo sapiens, UniProt Q9BUB5)
[16] = Metabolic stability in human liver microsomes assessed as parent compound remaining at 1 uM after 30 mins by LC-ESI-TOF/MS method; format: ADME, microsome; conditions: read-out: Stability
[17] = Oral bioavailability in Beagle dog at 3 mg/kg by LC-ESI-TOF/MS or LC-ESI-MS/MS method; format: ADME, organism-based, Canis lupus familiaris; conditions: in vivo
[18] = biological target: T1, Serine/threonine-protein kinase 17A (Homo sapiens) (UniProt Q9UEE5); assay: Inhibition of DRAK1 (unknown origin) at 1 uM relative to control
T1 sequence (whole entry): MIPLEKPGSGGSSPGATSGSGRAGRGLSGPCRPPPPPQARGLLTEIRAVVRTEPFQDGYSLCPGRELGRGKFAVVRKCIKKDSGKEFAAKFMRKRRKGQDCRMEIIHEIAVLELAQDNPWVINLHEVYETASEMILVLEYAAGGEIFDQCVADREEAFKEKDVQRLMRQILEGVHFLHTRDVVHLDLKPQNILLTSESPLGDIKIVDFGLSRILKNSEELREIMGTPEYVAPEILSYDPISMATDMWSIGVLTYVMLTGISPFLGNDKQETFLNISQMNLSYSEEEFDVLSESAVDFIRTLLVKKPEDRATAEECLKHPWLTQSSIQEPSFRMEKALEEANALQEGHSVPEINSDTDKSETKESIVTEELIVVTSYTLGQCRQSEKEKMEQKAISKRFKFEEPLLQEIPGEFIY

[19] = Metabolic stability in rat liver microsomes assessed as parent compound remaining at 1 uM after 30 mins by LC-ESI-TOF/MS method; format: ADME, microsome; conditions: read-out: Stability
[20] = Oral bioavailability in cynomolgus monkey at 3 mg/kg by LC-ESI-TOF/MS or LC-ESI-MS/MS method; format: ADME, organism-based, Macaca fascicularis; conditions: in vivo
[21] = Metabolic stability in mouse liver microsomes assessed as parent compound remaining at 1 uM after 30 mins by LC-ESI-TOF/MS method; format: ADME, microsome; conditions: read-out: Stability
[22] = Oral bioavailability in Sprague-Dawley rat at 10 mg/kg by LC-ESI-TOF/MS or LC-ESI-MS/MS method; format: ADME, organism-based; conditions: in vivo
[23] = Oral bioavailability in Balb/c mouse at 10 mg/kg by LC-ESI-TOF/MS or LC-ESI-MS/MS method; format: ADME, organism-based; conditions: in vivo
[24] = in vitro; conditions: human, Caco-2
[25] = biological target: T2, Serine/threonine-protein kinase BRSK1 (Homo sapiens) (UniProt Q8TDC3); assay: Inhibition of BRSK1 (unknown origin) at 1 uM relative to control
T2 sequence (whole entry): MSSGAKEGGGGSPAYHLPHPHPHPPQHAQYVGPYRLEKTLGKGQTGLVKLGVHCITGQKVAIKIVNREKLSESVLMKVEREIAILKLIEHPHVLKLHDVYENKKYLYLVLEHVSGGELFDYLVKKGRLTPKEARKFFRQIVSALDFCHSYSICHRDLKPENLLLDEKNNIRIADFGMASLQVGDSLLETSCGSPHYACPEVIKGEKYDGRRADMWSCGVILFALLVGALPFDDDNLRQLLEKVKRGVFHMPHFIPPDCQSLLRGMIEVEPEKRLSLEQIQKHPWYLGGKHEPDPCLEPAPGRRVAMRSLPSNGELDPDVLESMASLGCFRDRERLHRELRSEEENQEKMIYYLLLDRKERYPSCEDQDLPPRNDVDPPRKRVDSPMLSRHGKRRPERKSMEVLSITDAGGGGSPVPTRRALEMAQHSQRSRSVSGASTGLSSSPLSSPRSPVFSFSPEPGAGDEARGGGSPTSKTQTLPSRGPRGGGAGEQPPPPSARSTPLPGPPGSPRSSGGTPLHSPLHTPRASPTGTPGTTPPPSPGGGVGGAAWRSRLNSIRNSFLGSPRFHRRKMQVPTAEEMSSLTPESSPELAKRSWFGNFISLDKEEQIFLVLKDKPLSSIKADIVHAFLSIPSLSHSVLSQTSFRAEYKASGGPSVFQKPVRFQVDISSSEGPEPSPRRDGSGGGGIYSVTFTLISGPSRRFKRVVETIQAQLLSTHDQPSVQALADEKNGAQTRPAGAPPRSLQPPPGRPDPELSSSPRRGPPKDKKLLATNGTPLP

[26] = biological target: Dual specificity tyrosine-phosphorylation-regulated kinase 2 (Homo sapiens) (UniProt Q92630); assay: Inhibition of DYRK2 (unknown origin) at 1 uM relative to control
[27] = physchem; conditions: octanol/water
[28] = biological target: 5'-AMP-activated protein kinase subunit beta-1 (Homo sapiens) (UniProt Q9Y478); assay: Inhibition of AMPKB1 (unknown origin) at 1 uM relative to control
[29] = biological target: Rho-associated protein kinase 1 (Homo sapiens) (UniProt Q13464); assay: Inhibition of ROCK1 (unknown origin) at 1 uM relative to control
[30] = biological target: Ribosomal protein S6 kinase alpha-1 (Homo sapiens) (UniProt Q15418); assay: Inhibition of RSK1 (unknown origin) at 1 uM relative to control
[31] = biological target: Interleukin-1 receptor-associated kinase 1 (Homo sapiens) (UniProt P51617); assay: Inhibition of IRAK1 (unknown origin) at 1 uM relative to control
[32] = biological target: Serine/threonine-protein kinase pim-1 (Homo sapiens) (UniProt P11309); assay: Inhibition of PIM1 (unknown origin) at 1 uM relative to control
[33] = biological target: 5'-AMP-activated protein kinase catalytic subunit alpha-1 (Homo sapiens) (UniProt Q13131); assay: Inhibition of AMPKA1 (unknown origin) at 1 uM relative to control
[34] = tested on: PC-3; assay: Antiproliferative activity against human PC3 cells after 72 hrs by CellTiter-Glo assay; format: functional, cell-based; conditions: PC-3, 72 h
[35] = biological target: Calcium/calmodulin-dependent protein kinase type II subunit alpha (Homo sapiens) (UniProt Q9UQM7); assay: Inhibition of CAMK2A (unknown origin) at 1 uM relative to control
[36] = biological target: High affinity nerve growth factor receptor (Homo sapiens) (UniProt P04629); assay: Inhibition of TRKA (unknown origin) at 1 uM relative to control
[37] = biological target: Dual specificity mitogen-activated protein kinase kinase 2 (Homo sapiens) (UniProt P36507); assay: Inhibition of MEK2 (unknown origin) at 1 uM relative to control
[38] = biological target: Cyclin-dependent kinase 2 (Homo sapiens) (UniProt P24941); assay: Inhibition of CDK2 (unknown origin) at 1 uM relative to control
[39] = biological target: 5'-AMP-activated protein kinase subunit gamma-1 (Homo sapiens) (UniProt P54619); assay: Inhibition of AMPKG1 (unknown origin) at 1 uM relative to control
[40] = biological target: Serine/threonine-protein kinase B-raf (Homo sapiens) (UniProt P15056); assay: Inhibition of BRAF (unknown origin) at 1 uM relative to control
[41] = biological target: Dual specificity protein kinase CLK1 (Homo sapiens) (UniProt P49759); assay: Inhibition of CLK1 (unknown origin) at 1 uM relative to control

Chain of Vascular endothelial growth factor receptor 2 (Homo sapiens) (P35968 whole entry): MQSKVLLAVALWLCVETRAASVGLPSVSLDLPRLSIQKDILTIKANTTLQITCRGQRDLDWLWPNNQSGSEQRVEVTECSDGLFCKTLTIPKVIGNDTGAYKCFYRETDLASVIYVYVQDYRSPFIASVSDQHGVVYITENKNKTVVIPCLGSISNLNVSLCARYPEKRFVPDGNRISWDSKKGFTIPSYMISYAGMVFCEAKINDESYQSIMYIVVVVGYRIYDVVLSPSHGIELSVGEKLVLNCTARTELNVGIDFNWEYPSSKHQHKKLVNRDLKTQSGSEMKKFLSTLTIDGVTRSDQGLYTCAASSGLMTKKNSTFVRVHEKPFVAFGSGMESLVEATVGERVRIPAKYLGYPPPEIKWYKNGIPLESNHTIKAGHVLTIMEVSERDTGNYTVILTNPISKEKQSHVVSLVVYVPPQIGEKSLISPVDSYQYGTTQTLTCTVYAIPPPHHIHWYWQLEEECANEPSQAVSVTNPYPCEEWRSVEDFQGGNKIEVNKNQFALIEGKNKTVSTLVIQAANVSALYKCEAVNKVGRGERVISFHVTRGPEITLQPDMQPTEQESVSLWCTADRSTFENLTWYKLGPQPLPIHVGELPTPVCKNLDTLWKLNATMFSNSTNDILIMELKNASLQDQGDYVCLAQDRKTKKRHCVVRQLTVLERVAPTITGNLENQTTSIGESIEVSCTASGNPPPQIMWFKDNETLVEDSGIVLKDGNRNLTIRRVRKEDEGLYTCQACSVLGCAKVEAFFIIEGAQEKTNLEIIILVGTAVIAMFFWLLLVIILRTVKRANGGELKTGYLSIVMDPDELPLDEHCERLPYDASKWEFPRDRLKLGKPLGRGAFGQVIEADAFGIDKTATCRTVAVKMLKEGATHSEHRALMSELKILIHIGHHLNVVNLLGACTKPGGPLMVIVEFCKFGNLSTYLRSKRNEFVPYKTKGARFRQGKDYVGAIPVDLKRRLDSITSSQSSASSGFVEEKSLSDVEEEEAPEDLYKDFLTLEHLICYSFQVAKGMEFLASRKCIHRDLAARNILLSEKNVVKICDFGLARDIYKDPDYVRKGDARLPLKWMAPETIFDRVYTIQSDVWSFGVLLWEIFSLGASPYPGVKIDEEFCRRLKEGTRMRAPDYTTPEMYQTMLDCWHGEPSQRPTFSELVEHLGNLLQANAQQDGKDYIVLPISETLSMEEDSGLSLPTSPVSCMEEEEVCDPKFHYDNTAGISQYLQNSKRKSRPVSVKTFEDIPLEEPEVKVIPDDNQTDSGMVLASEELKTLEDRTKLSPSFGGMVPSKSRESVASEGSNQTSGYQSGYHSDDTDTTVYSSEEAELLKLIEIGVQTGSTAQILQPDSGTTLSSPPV
Chain of Receptor-type tyrosine-protein kinase FLT3 (Homo sapiens) (P36888 whole entry): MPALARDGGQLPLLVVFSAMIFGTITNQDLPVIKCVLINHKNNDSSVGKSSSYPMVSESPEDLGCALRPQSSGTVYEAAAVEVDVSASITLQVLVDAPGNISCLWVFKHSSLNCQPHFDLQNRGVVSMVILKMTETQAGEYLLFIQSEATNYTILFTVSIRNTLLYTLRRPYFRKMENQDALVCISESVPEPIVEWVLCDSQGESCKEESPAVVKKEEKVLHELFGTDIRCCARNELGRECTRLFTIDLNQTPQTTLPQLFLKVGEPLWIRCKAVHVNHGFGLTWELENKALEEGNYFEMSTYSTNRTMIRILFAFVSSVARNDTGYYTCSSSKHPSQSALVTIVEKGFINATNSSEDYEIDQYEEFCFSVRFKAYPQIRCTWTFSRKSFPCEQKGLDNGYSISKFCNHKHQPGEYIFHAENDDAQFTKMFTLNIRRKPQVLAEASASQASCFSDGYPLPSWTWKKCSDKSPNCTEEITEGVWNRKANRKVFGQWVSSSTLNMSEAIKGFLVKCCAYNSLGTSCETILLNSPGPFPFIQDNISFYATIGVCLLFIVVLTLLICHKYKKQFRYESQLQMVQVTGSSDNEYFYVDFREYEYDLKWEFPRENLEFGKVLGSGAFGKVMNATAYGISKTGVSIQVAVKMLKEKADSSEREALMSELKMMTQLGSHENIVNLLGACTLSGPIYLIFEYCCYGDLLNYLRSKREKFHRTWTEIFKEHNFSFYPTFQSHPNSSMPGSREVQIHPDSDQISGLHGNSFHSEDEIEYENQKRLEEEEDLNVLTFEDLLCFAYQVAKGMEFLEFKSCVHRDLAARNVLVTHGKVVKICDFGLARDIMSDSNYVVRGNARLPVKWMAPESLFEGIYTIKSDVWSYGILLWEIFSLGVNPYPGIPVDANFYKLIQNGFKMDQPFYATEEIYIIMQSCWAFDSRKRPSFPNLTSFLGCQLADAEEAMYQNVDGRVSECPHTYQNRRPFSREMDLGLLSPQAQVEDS
Chain of MAP kinase-interacting serine/threonine-protein kinase 2 (Q9HBH9 whole entry): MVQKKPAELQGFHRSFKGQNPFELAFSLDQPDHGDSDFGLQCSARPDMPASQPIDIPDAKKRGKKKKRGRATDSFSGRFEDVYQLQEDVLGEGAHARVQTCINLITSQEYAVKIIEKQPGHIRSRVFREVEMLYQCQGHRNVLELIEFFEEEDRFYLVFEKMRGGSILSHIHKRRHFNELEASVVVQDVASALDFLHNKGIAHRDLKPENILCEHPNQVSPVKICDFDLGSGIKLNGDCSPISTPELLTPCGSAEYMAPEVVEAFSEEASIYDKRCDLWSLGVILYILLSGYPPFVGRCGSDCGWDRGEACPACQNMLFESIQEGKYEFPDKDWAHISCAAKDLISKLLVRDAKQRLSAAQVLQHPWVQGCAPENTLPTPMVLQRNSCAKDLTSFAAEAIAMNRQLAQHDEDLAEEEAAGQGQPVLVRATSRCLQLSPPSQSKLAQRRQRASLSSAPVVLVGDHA
Chain of MAP kinase-interacting serine/threonine-protein kinase 1 (Q9BUB5 whole entry): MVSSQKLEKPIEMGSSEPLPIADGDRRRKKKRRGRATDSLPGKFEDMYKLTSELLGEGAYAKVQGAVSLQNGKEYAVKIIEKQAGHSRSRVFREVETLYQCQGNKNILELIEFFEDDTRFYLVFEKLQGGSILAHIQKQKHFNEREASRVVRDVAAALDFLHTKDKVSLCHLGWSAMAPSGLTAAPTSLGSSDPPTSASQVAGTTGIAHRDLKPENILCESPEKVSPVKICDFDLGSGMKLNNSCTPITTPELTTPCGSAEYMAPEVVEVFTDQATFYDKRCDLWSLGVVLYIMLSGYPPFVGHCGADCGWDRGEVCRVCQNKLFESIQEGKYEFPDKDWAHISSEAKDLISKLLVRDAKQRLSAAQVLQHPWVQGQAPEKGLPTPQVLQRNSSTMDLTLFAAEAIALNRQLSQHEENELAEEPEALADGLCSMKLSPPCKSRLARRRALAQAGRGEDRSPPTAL
Chain of Tyrosine-protein kinase ABL1 (Homo sapiens) (P00519 whole entry): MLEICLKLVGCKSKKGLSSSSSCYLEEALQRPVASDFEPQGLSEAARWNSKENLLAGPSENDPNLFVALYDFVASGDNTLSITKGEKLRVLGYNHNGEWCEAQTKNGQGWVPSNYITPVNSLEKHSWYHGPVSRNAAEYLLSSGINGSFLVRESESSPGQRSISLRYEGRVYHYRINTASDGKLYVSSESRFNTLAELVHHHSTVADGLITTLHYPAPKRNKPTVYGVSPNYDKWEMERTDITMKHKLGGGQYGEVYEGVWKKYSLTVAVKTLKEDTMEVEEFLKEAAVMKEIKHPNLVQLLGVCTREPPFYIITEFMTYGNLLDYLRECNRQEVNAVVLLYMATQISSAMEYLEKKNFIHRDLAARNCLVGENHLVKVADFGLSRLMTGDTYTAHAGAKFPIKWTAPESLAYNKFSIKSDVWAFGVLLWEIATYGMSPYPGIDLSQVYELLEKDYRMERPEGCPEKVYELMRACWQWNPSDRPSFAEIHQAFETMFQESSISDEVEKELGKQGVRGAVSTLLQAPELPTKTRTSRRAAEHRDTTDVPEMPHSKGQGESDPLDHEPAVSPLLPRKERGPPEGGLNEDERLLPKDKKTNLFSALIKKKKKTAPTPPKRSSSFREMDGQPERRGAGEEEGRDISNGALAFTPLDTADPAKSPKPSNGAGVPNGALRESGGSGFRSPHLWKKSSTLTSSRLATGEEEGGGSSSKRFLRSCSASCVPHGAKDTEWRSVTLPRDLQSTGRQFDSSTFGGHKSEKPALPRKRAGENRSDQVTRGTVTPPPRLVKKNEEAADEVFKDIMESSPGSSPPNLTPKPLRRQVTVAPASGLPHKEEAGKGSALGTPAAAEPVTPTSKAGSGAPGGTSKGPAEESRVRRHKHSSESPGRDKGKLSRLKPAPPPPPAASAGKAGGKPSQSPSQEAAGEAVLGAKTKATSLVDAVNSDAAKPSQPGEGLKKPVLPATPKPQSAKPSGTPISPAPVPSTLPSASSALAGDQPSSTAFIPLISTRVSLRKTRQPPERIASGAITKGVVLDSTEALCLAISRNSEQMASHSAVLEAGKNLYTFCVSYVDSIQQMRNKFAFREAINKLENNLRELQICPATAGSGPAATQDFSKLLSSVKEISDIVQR
Chain of Tyrosine-protein kinase Lck (Homo sapiens) (P06239 2-509 limits assumed): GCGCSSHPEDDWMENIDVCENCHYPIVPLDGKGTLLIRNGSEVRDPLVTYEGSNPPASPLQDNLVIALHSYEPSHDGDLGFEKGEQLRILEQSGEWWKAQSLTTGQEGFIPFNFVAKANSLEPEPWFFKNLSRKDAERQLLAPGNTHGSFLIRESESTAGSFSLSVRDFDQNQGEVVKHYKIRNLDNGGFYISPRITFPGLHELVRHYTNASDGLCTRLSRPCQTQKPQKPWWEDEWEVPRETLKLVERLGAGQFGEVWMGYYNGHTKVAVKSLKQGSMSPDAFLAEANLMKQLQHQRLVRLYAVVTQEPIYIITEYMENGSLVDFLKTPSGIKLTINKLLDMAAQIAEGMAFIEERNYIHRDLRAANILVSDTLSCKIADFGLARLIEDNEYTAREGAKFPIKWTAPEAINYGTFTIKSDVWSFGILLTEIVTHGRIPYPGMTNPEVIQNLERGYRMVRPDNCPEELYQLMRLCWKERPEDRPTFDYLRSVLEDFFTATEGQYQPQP

Nc1ncnc(Nc2cc(Cl)c3n(c2=O)C2(CCCCC2)NC3=O)c1Cl
IC50 [1]: 0.084 nM
IC50 [2]: 0.36 nM

CC1(c2cccc(Cl)c2)NC(=O)c2c(Cl)cc(Nc3cc(NC(=O)C4CC4)ncn3)c(=O)n21 (stereo not given)
inhibition [3]: 10%
inhibition [4]: 10%
EC50 [5]: 2800 nM
inhibition [6]: 10%
inhibition [7]: 10%
inhibition [8]: 10%
inhibition [9]: 10%
inhibition [10]: 10%
inhibition [11]: 10%
inhibition [12]: 10%
inhibition [13]: 10%
EC50 [14]: 2700 nM

O=C1NCc2cc(Nc3ncnc4[nH]cnc34)ccc21
IC50 [15]: 23 nM

NC(=O)c1ccc(Nc2ccncn2)cc1
IC50 [15]: 690 nM

Cc1cc(Nc2cc(N)ncn2)c(=O)n2c1C(=O)NC21CCC(F)(F)CC1
remaining at 0.5 h, 1 µM [16]: 97%
bioavailability [17]: > 100%
inhibition [18]: 68%
IC50 [15]: 1.4 nM
remaining at 0.5 h, 1 µM [19]: 100%
bioavailability [20]: 58%
remaining at 0.5 h, 1 µM [21]: 99%
bioavailability [22]: 56%
bioavailability [23]: 85%

CC1(C)NC(=O)c2ccc(Nc3ccncn3)cc21
IC50 [1]: 4400 nM
IC50 [2]: 61 nM
IC50 [15]: 100 nM

NC(=O)c1cccn2c(-c3cccnc3)cnc12
IC50 [15]: 6400 nM

O=C1NCc2cc(Nc3cc(NC(=O)C4CC4)ncn3)ccc21
IC50 [1]: 430 nM
IC50 [2]: 5.7 nM
IC50 [15]: 1.9 nM

NC(=O)c1ccc(Nc2ccncn2)c(=O)[nH]1
IC50 [15]: 3000 nM

CC1NC(=O)c2ccc(Nc3ccncn3)cc21 (stereo not given)
IC50 [1]: 28000 nM
IC50 [2]: 45 nM
IC50 [15]: 28 nM

c1cc(-c2cc(C3CCNCC3)[nH]n2)ccn1
IC50 [15]: 5500 nM

c1ccc(-c2n[nH]c3ccc(-c4ccncc4)cc23)cc1
IC50 [15]: 3800 nM

NC(=O)c1ccc(Nc2ncnc3[nH]cnc23)cc1
IC50 [15]: 60 nM

CC1(C)NC(=O)c2c(Cl)cc(Nc3cc(N)ncn3)c(=O)n21
inhibition [3]: 74%
remaining at 0.5 h, 1 µM [16]: 100%
Papp A→B at 2 h, 5 µM [24]: 0.9 ×10⁻⁶ cm/s
bioavailability [17]: > 100%
inhibition [25]: 52%
inhibition [26]: 67%
logP [27]: 1.8
inhibition [18]: 88%
remaining at 0.5 h, 1 µM [19]: 100%
bioavailability [20]: 54%
remaining at 0.5 h, 1 µM [21]: 95%
bioavailability [22]: 50%
bioavailability [23]: 79%

N[C@H]1C[C@H](Oc2ccc3ncc(-c4ccc5cnccc5c4)n3n2)C1
inhibition [3]: 17%
inhibition [28]: 17%
inhibition [29]: 17%
inhibition [30]: 17%
inhibition [31]: 17%
IC50 [1]: 120 nM
EC50 [5]: 310 nM
inhibition [32]: 17%
IC50 [2]: 7.8 nM
inhibition [33]: 17%
inhibition [7]: 17%
EC50 [34]: 590 nM
inhibition [8]: 17%
inhibition [35]: 17%
inhibition [36]: 17%
inhibition [37]: 17%
inhibition [38]: 17%
inhibition [11]: 17%
IC50 [15]: 1.5 nM
inhibition [39]: 17%
inhibition [40]: 17%
inhibition [13]: 17%
inhibition [41]: 17%
EC50 [14]: 210 nM

CC1(C)NC(=O)c2ccc(Nc3cc(NC(=O)C4CC4)ncn3)c(=O)n21
inhibition [3]: 4%
EC50 [5]: > 30000 nM
EC50 [34]: > 30000 nM
inhibition [8]: 4%
inhibition [10]: 4%
inhibition [12]: 4%
EC50 [14]: > 30000 nM

Cc1n[nH]c(C)c1-c1ccc(C2CCCN2)cc1 (stereo not given)
IC50 [15]: 4700 nM

c1cnn2c(-c3ccncc3)cnc2c1
IC50 [15]: 1800 nM
